The results in this text go back to patent US20040006236A1, “Diaminopropionic acid derivatives” (priority 1999, published 2004).

SMILES strings stand for the structures.

In the experiment the target is T1, LFA-1 binding to immobilized ICAM-1 (Homo sapiens, UniProt P05107+P20701).
T1 construct: made in house; host or cells: transfected 293 cells (LFA-1)
T1 sequence (P20701 26-1170): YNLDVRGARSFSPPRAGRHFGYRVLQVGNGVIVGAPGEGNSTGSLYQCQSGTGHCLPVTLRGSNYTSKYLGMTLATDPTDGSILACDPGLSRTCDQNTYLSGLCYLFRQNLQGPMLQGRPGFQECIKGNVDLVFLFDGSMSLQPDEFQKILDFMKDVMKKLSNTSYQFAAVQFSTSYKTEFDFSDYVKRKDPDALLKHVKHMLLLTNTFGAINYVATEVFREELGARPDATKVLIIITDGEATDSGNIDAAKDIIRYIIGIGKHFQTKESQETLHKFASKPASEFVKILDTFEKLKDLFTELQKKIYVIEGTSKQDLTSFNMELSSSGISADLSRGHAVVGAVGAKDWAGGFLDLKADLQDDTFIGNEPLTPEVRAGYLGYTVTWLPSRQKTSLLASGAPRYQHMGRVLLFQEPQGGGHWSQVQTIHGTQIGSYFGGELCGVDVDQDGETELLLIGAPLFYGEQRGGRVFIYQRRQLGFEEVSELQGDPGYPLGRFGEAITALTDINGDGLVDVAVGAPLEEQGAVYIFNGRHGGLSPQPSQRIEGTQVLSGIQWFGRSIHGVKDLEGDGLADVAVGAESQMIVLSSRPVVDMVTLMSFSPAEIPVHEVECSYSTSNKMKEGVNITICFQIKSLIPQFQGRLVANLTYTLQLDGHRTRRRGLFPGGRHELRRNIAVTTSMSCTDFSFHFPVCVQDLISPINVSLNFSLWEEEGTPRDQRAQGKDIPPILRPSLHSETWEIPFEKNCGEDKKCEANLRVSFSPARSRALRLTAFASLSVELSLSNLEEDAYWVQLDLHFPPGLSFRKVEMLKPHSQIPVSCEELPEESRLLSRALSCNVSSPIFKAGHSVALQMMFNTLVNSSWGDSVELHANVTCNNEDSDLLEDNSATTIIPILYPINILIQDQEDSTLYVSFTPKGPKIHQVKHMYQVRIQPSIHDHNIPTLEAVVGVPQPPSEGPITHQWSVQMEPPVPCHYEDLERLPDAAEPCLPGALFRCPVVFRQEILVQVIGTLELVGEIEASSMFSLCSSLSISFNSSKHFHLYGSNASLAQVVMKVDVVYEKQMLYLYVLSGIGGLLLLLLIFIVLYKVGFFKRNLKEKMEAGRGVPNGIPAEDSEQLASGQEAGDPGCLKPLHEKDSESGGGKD
T1 sequence (P05107 23-769): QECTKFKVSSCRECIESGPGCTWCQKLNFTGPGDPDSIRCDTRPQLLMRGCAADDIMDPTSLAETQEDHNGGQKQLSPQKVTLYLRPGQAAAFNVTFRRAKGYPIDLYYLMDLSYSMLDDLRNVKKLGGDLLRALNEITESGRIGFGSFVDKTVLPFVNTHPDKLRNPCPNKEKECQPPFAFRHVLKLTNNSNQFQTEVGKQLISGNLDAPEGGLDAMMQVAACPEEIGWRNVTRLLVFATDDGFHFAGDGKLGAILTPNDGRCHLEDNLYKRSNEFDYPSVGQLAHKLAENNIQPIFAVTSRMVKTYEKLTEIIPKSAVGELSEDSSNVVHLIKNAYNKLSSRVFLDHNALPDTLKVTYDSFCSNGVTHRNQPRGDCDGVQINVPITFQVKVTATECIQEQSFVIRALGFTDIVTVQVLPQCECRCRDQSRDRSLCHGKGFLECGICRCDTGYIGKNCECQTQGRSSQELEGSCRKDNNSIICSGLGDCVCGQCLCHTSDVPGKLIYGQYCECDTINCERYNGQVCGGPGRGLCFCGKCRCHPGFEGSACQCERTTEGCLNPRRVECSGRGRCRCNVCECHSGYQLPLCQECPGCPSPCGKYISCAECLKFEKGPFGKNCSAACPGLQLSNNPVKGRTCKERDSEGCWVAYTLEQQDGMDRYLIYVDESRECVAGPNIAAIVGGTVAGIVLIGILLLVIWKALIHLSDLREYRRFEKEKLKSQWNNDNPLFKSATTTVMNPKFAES
As to the kind of experiment: LFA-1/ICAM-1 protein-protein assay (solid-phase ELISA). As to conditions: read-out: LFA-1/ICAM-1 Protein-Protein Assay IC50. In short, it runs like this:
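Human 5dICAM-Ig (ICAM-1 extracellular domain–IgG Fc) coated on plates; membrane-bound LFA-1 from transfected 293 cells (280 ng/mL) added with compound in Mn2+-containing HEPES buffer pH 7.2, 2 h at 37° C. Bound LFA-1 detected via anti-β2 antibody and HRP/TMB at 450 nm; IC50s determined.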
In the case of `O=C(NCc1cccc(O)c1)c1ccc(C(=O)N[C@@H](CNC(=O)c2ccc(Cl)cc2)C(=O)O)c(Cl)c1` [Example 124], the IC50 is 3.3 nM.

As for `N#Cc1cccc(C(=O)NC[C@H](NC(=O)c2ccc(C(=O)NCc3cccc(O)c3)cc2Cl)C(=O)O)c1` [Example 126], the IC50 stood at 1.2 nM. Turning to `CN(C)c1cccc(C(=O)NC[C@H](NC(=O)c2ccc(C(=O)NCc3cccc(O)c3)cc2Cl)C(=O)O)c1` [Example 127], the IC50 was determined as 2.2 nM. Take `CN(C)c1ccc(C(=O)NC[C@H](NC(=O)c2ccc(C(=O)NCc3cccc(O)c3)cc2Cl)C(=O)O)cc1` [Example 128]: the IC50 amounted to 4.2 nM. For `CCOc1ccc(C(=O)NC[C@H](NC(=O)c2ccc(C(=O)NCc3cccc(O)c3)cc2Cl)C(=O)O)cc1` [Example 130] the value was 5 nM; for `O=C(NCc1cccc(O)c1)c1ccc(C(=O)N[C@@H](CNC(=O)c2cccc(F)c2)C(=O)O)c(Cl)c1` [Example 131], 0.8 nM. For `O=C(NCc1cccc(O)c1)c1ccc(C(=O)N[C@@H](CNC(=O)c2cccc(O)c2)C(=O)O)c(Cl)c1` [Example 132] the value was 0.6 nM; for `O=C(NCc1cccc(O)c1)c1ccc(C(=O)N[C@@H](CNC(=O)c2cccc(I)c2)C(=O)O)c(Cl)c1` [Example 133], 1.5 nM; for `COc1ccccc1C(=O)NC[C@H](NC(=O)c1ccc(C(=O)NCc2cccc(O)c2)cc1Cl)C(=O)O` [Example 134], 2.1 nM. For `COc1ccc(C(=O)NC[C@H](NC(=O)c2ccc(C(=O)NCc3cccc(O)c3)cc2Cl)C(=O)O)cc1` [Example 135] the value was 6.3 nM; for `COC(=O)c1cccc(C(=O)NC[C@H](NC(=O)c2ccc(C(=O)NCc3cccc(O)c3)cc2Cl)C(=O)O)c1` [Example 136], 2 nM; for `Cc1ccccc1C(=O)NC[C@H](NC(=O)c1ccc(C(=O)NCc2cccc(O)c2)cc1Cl)C(=O)O` [Example 137], 1.1 nM. In the case of `Cc1cccc(C(=O)NC[C@H](NC(=O)c2ccc(C(=O)NCc3cccc(O)c3)cc2Cl)C(=O)O)c1` [Example 138], the IC50 is 0.7 nM. The value for `Cc1ccc(C(=O)NC[C@H](NC(=O)c2ccc(C(=O)NCc3cccc(O)c3)cc2Cl)C(=O)O)cc1` [Example 139] was 4.8 nM. The value for `O=C(NCc1cccc(O)c1)c1ccc(C(=O)N[C@@H](CNC(=O)c2ccccc2[N+](=O)[O-])C(=O)O)c(Cl)c1` [Example 140] was 1.8 nM; that for `O=C(NCc1cccc(O)c1)c1ccc(C(=O)N[C@@H](CNC(=O)c2cccc([N+](=O)[O-])c2)C(=O)O)c(Cl)c1` [Example 141] was 1.9 nM; that for `O=C(NCc1cccc(O)c1)c1ccc(C(=O)N[C@@H](CNC(=O)c2ccc([N+](=O)[O-])cc2)C(=O)O)c(Cl)c1` [Example 142] was 2 nM. Take `CCCCCOc1ccc(C(=O)NC[C@H](NC(=O)c2ccc(C(=O)NCc3cccc(O)c3)cc2Cl)C(=O)O)cc1` [Example 143]: the IC50 is 11 nM. In the case of `O=C(NCc1cccc(O)c1)c1ccc(C(=O)N[C@@H](CNC(=O)c2ccccc2Oc2ccccc2)C(=O)O)c(Cl)c1` [Example 144], the IC50 stood at 6.6 nM.

On to `O=C(NCc1cccc(O)c1)c1ccc(C(=O)N[C@@H](CNC(=O)c2cc(F)c(F)cc2F)C(=O)O)c(Cl)c1` [Example 145], for which the IC50 is 1.7 nM. For `O=C(NCc1cccc(O)c1)c1ccc(C(=O)N[C@@H](CNC(=O)c2cccc(C(F)(F)F)c2)C(=O)O)c(Cl)c1` [Example 146] the value was 2.6 nM; for `COc1cc(C(=O)NC[C@H](NC(=O)c2ccc(C(=O)NCc3cccc(O)c3)cc2Cl)C(=O)O)cc(OC)c1OC` [Example 147], 15 nM; for `O=C(NCc1cccc(O)c1)c1ccc(C(=O)N[C@@H](CNC(=O)c2ccco2)C(=O)O)c(Cl)c1` [Example 148], 1.4 nM. The value for `O=C(NCc1cccc(O)c1)c1ccc(C(=O)N[C@@H](CNC(=O)c2ccc([N+](=O)[O-])o2)C(=O)O)c(Cl)c1` [Example 149] was 2.9 nM; that for `O=C(NCc1cccc(O)c1)c1ccc(C(=O)N[C@@H](CNC(=O)c2ccc(Br)o2)C(=O)O)c(Cl)c1` [Example 150] was 2.5 nM; that for `O=C(NCc1cccc(O)c1)c1ccc(C(=O)N[C@@H](CNC(=O)c2ccc[nH]2)C(=O)O)c(Cl)c1` [Example 151] was 2.8 nM. The value for `Cc1noc(C)c1C(=O)NC[C@H](NC(=O)c1ccc(C(=O)NCc2cccc(O)c2)cc1Cl)C(=O)O` [Example 153] was 7.7 nM. With `O=C(NCc1cccc(O)c1)c1ccc(C(=O)N[C@@H](CNC(=O)c2sccc2Br)C(=O)O)c(Cl)c1` [Example 154], the IC50 was determined as 0.9 nM.

Regarding `O=C(NCc1cccc(O)c1)c1ccc(C(=O)N[C@@H](CNC(=O)c2ccc(Br)s2)C(=O)O)c(Cl)c1` [Example 155], the IC50 came to 0.7 nM. The value for `O=C(NCc1cccc(O)c1)c1ccc(C(=O)N[C@@H](CNC(=O)c2sccc2Cl)C(=O)O)c(Cl)c1` [Example 156] was 1 nM; that for `O=C(NCc1cccc(O)c1)c1ccc(C(=O)N[C@@H](CNC(=O)c2ccc(Cl)s2)C(=O)O)c(Cl)c1` [Example 157] was 1.2 nM. The value for `O=C(NCc1cccc(O)c1)c1ccc(C(=O)N[C@@H](CNC(=O)c2cc(Br)c(Br)s2)C(=O)O)c(Cl)c1` [Example 158] was 7.5 nM. In the case of `Cc1ccsc1C(=O)NC[C@H](NC(=O)c1ccc(C(=O)NCc2cccc(O)c2)cc1Cl)C(=O)O` [Example 159], the IC50 was found to be 0.9 nM.

Consider `Cc1ccc(C(=O)NC[C@H](NC(=O)c2ccc(C(=O)NCc3cccc(O)c3)cc2Cl)C(=O)O)s1` [Example 160], for which the IC50 is 0.9 nM. For `O=C(NCc1cccc(O)c1)c1ccc(C(=O)N[C@@H](CNC(=O)c2ccsc2)C(=O)O)c(Cl)c1` [Example 161] the value was 1 nM; for `Cc1cccc(C(=O)NC[C@H](NC(=O)c2ccc(C(=O)NCc3cccc(O)c3)cc2Cl)C(=O)O)n1` [Example 163], 3.2 nM. The value for `O=C(NCc1cccc(O)c1)c1ccc(C(=O)N[C@@H](CNC(=O)c2cccnc2)C(=O)O)c(Cl)c1` [Example 165] was 1.3 nM. `C[C@@H](NC(=O)c1cc(Cl)c(C(=O)N[C@@H](CNC(=O)c2cccs2)C(=O)O)c(Cl)c1)c1cccc2ccccc12` [Example 346, N-[2,6-dichloro-4-[[[(1R)-1-(1-naphthalenyl)ethyl]amino]carbonyl]benzoyl]-3-[(thiophene-2-carbonyl)amino]-L-alanine]: the IC50 stood at 2.1 nM. For `C[C@@H](NC(=O)c1cc(Cl)c(C(=O)N[C@@H](CNC(=O)c2ccccc2)C(=O)O)c(Cl)c1)c1cccc2ccccc12` [Example 347] the value was 3.4 nM.

Take `O=C(NCc1cccc(O)c1)c1cc(Cl)c(C(=O)N[C@@H](CNC(=O)c2cccc(F)c2)C(=O)O)c(Cl)c1` [Example 349]: the IC50 turned out to be 1.1 nM. The value for `O=C(NCc1cccc(O)c1)c1cc(Cl)c(C(=O)N[C@@H](CNC(=O)c2cccc(O)c2)C(=O)O)c(Cl)c1` [Example 350] was 1 nM; that for `COc1ccc(C(=O)NC[C@H](NC(=O)c2c(Cl)cc(C(=O)NCc3cccc(O)c3)cc2Cl)C(=O)O)cc1O` [Example 351] was 0.8 nM; that for `O=C(NCc1cccc(O)c1)c1cc(Cl)c(C(=O)N[C@@H](CNC(=O)c2sccc2Br)C(=O)O)c(Cl)c1` [Example 353] was 1.6 nM.
